# In patent publication US20110250135A1, “Piperazine Derivatives for Binding and Imaging Amyloid Plaques and Their Use” (Bayer Schering Pharma Aktiengesellschaft, priority 2008, published 2011):
# Assays:
# [1] = Biodistribution: organ distribution of F-18 signal in mice; type: in vivo, male NMRI mice; conditions: for Organ distribution of F-18 signal, intestine: intestine (with content); for Organ distribution of F-18 signal, stomach: stomach (without content)
# How it was run: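 Male NMRI mice (~30 g, 3 per time point) received ca. 150 kBq of the test compound i.v. via tail vein. At 2, 5, 30, 60 and 240 min, urine and feces were collected and organs and tissues taken for gamma counting. Values are decay-corrected % ID/g ± SD.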
# Aβ plaques = target: T1, Aβ plaques (Homo sapiens, UniProt P05067); assay: Autoradiographical analysis of binding to cryosections from cortex of AD patients and controls; conditions: F-18 labeled compound; Alzheimer's disease patients (AD) vs controls without Aβ plaques
# T1 construct: controls without Aβ plaques; from tissue; host or cells: frontal lobe / cortex sections (frozen and paraffin) from AD patients, FTD patients and age-matched controls
# T1 sequence (P05067 672-713 limits assumed): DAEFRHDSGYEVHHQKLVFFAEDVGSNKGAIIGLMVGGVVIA
# How it was run: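 Frozen (18 μm) and deparaffinized paraffin (6 μm) frontal-lobe sections from Alzheimer's, frontotemporal dementia and age-matched control brains were incubated 1.5 h at room temperature with F-18 test compound at 10 Bq/μl in 25 mM Hepes pH 7.4, 0.1% BSA. Blocking used 1000-fold excess unlabeled compound; phosphoimager readout.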
compound,measurement,setting,value
"O=C(NCC(=O)N1CCN(c2ccc(OCc3ccccc3)cc2)CC1)c1cccnc1[18F] [Example 12c, N-{2-[4-(4-Benzyloxy-phenyl)-piperazin-1-yl]-2-oxoethyl}-2-[F-18]-fluoro-nicotinamide]","Organ distribution of F-18 signal, adrenals",[1]; 2 min post i.v. injection,6.60 % ID/g
same,"Organ distribution of F-18 signal, adrenals",[1]; 5 min post i.v. injection,10.38 % ID/g
same,"Organ distribution of F-18 signal, adrenals",[1]; 30 min post i.v. injection,2.77 % ID/g
same,"Organ distribution of F-18 signal, adrenals",[1]; 60 min post i.v. injection,1.55 % ID/g
same,"Organ distribution of F-18 signal, adrenals",[1]; 240 min post i.v. injection,0.40 % ID/g
same,"Organ distribution of F-18 signal, blood",[1]; 2 min post i.v. injection,1.78 % ID/g
same,"Organ distribution of F-18 signal, blood",[1]; 5 min post i.v. injection,1.90 % ID/g
same,"Organ distribution of F-18 signal, blood",[1]; 30 min post i.v. injection,1.30 % ID/g
same,"Organ distribution of F-18 signal, blood",[1]; 60 min post i.v. injection,0.70 % ID/g
same,"Organ distribution of F-18 signal, blood",[1]; 240 min post i.v. injection,0.09 % ID/g
same,"Organ distribution of F-18 signal, brain",[1]; 2 min post i.v. injection,5.37 % ID/g
same,"Organ distribution of F-18 signal, brain",[1]; 5 min post i.v. injection,4.60 % ID/g
same,"Organ distribution of F-18 signal, brain",[1]; 30 min post i.v. injection,1.28 % ID/g
same,"Organ distribution of F-18 signal, brain",[1]; 60 min post i.v. injection,0.60 % ID/g
same,"Organ distribution of F-18 signal, brain",[1]; 240 min post i.v. injection,0.07 % ID/g
same,"Organ distribution of F-18 signal, fat",[1]; 2 min post i.v. injection,1.00 % ID/g
same,"Organ distribution of F-18 signal, fat",[1]; 5 min post i.v. injection,1.92 % ID/g
same,"Organ distribution of F-18 signal, fat",[1]; 30 min post i.v. injection,1.89 % ID/g
same,"Organ distribution of F-18 signal, fat",[1]; 60 min post i.v. injection,1.29 % ID/g
same,"Organ distribution of F-18 signal, fat",[1]; 240 min post i.v. injection,0.11 % ID/g
same,"Organ distribution of F-18 signal, femur",[1]; 2 min post i.v. injection,1.70 % ID/g
same,"Organ distribution of F-18 signal, femur",[1]; 5 min post i.v. injection,1.63 % ID/g
same,"Organ distribution of F-18 signal, femur",[1]; 30 min post i.v. injection,5.55 % ID/g
same,"Organ distribution of F-18 signal, femur",[1]; 60 min post i.v. injection,7.65 % ID/g
same,"Organ distribution of F-18 signal, femur",[1]; 240 min post i.v. injection,7.96 % ID/g
same,"Organ distribution of F-18 signal, heart",[1]; 2 min post i.v. injection,4.76 % ID/g
same,"Organ distribution of F-18 signal, heart",[1]; 5 min post i.v. injection,4.28 % ID/g
same,"Organ distribution of F-18 signal, heart",[1]; 30 min post i.v. injection,1.52 % ID/g
same,"Organ distribution of F-18 signal, heart",[1]; 60 min post i.v. injection,0.69 % ID/g
same,"Organ distribution of F-18 signal, heart",[1]; 240 min post i.v. injection,0.08 % ID/g
same,"Organ distribution of F-18 signal, intestine",[1]; 2 min post i.v. injection,1.78 % ID/g
same,"Organ distribution of F-18 signal, intestine",[1]; 5 min post i.v. injection,2.44 % ID/g
same,"Organ distribution of F-18 signal, intestine",[1]; 30 min post i.v. injection,6.62 % ID/g
same,"Organ distribution of F-18 signal, intestine",[1]; 60 min post i.v. injection,8.88 % ID/g
same,"Organ distribution of F-18 signal, intestine",[1]; 240 min post i.v. injection,10.54 % ID/g
same,"Organ distribution of F-18 signal, kidney",[1]; 2 min post i.v. injection,7.70 % ID/g
same,"Organ distribution of F-18 signal, kidney",[1]; 5 min post i.v. injection,7.76 % ID/g
same,"Organ distribution of F-18 signal, kidney",[1]; 30 min post i.v. injection,7.88 % ID/g
same,"Organ distribution of F-18 signal, kidney",[1]; 60 min post i.v. injection,3.63 % ID/g
same,"Organ distribution of F-18 signal, kidney",[1]; 240 min post i.v. injection,0.58 % ID/g
same,"Organ distribution of F-18 signal, liver",[1]; 2 min post i.v. injection,5.84 % ID/g
same,"Organ distribution of F-18 signal, liver",[1]; 5 min post i.v. injection,8.93 % ID/g
same,"Organ distribution of F-18 signal, liver",[1]; 30 min post i.v. injection,8.20 % ID/g
same,"Organ distribution of F-18 signal, liver",[1]; 60 min post i.v. injection,6.01 % ID/g
same,"Organ distribution of F-18 signal, liver",[1]; 240 min post i.v. injection,2.40 % ID/g
same,"Organ distribution of F-18 signal, lung",[1]; 2 min post i.v. injection,3.52 % ID/g
same,"Organ distribution of F-18 signal, lung",[1]; 5 min post i.v. injection,3.73 % ID/g
same,"Organ distribution of F-18 signal, lung",[1]; 30 min post i.v. injection,1.78 % ID/g
same,"Organ distribution of F-18 signal, lung",[1]; 60 min post i.v. injection,0.79 % ID/g
same,"Organ distribution of F-18 signal, lung",[1]; 240 min post i.v. injection,0.15 % ID/g
same,"Organ distribution of F-18 signal, muscle",[1]; 2 min post i.v. injection,2.48 % ID/g
same,"Organ distribution of F-18 signal, muscle",[1]; 5 min post i.v. injection,17.41 % ID/g
same,"Organ distribution of F-18 signal, muscle",[1]; 30 min post i.v. injection,0.88 % ID/g
same,"Organ distribution of F-18 signal, muscle",[1]; 60 min post i.v. injection,0.47 % ID/g
same,"Organ distribution of F-18 signal, muscle",[1]; 240 min post i.v. injection,0.06 % ID/g
same,"Organ distribution of F-18 signal, pancreas",[1]; 2 min post i.v. injection,3.58 % ID/g
same,"Organ distribution of F-18 signal, pancreas",[1]; 5 min post i.v. injection,4.30 % ID/g
same,"Organ distribution of F-18 signal, pancreas",[1]; 30 min post i.v. injection,1.55 % ID/g
same,"Organ distribution of F-18 signal, pancreas",[1]; 60 min post i.v. injection,0.75 % ID/g
same,"Organ distribution of F-18 signal, pancreas",[1]; 240 min post i.v. injection,0.12 % ID/g
same,"Organ distribution of F-18 signal, skin",[1]; 2 min post i.v. injection,1.25 % ID/g
same,"Organ distribution of F-18 signal, skin",[1]; 5 min post i.v. injection,1.23 % ID/g
same,"Organ distribution of F-18 signal, skin",[1]; 30 min post i.v. injection,1.51 % ID/g
same,"Organ distribution of F-18 signal, skin",[1]; 60 min post i.v. injection,0.66 % ID/g
same,"Organ distribution of F-18 signal, skin",[1]; 240 min post i.v. injection,0.08 % ID/g
same,"Organ distribution of F-18 signal, spleen",[1]; 2 min post i.v. injection,1.32 % ID/g
same,"Organ distribution of F-18 signal, spleen",[1]; 5 min post i.v. injection,2.08 % ID/g
same,"Organ distribution of F-18 signal, spleen",[1]; 30 min post i.v. injection,0.87 % ID/g
same,"Organ distribution of F-18 signal, spleen",[1]; 60 min post i.v. injection,0.42 % ID/g
same,"Organ distribution of F-18 signal, spleen",[1]; 240 min post i.v. injection,0.06 % ID/g
same,"Organ distribution of F-18 signal, stomach",[1]; 2 min post i.v. injection,3.14 % ID/g
same,"Organ distribution of F-18 signal, stomach",[1]; 5 min post i.v. injection,3.52 % ID/g
same,"Organ distribution of F-18 signal, stomach",[1]; 30 min post i.v. injection,1.91 % ID/g
same,"Organ distribution of F-18 signal, stomach",[1]; 60 min post i.v. injection,1.89 % ID/g
same,"Organ distribution of F-18 signal, stomach",[1]; 240 min post i.v. injection,0.71 % ID/g
same,"Organ distribution of F-18 signal, tail",[1]; 2 min post i.v. injection,12.72 % ID/g
same,"Organ distribution of F-18 signal, tail",[1]; 5 min post i.v. injection,6.80 % ID/g
same,"Organ distribution of F-18 signal, tail",[1]; 30 min post i.v. injection,2.72 % ID/g
same,"Organ distribution of F-18 signal, tail",[1]; 60 min post i.v. injection,3.08 % ID/g
same,"Organ distribution of F-18 signal, tail",[1]; 240 min post i.v. injection,1.30 % ID/g
same,"Organ distribution of F-18 signal, testicle",[1]; 2 min post i.v. injection,1.21 % ID/g
same,"Organ distribution of F-18 signal, testicle",[1]; 5 min post i.v. injection,1.79 % ID/g
same,"Organ distribution of F-18 signal, testicle",[1]; 30 min post i.v. injection,1.09 % ID/g
same,"Organ distribution of F-18 signal, testicle",[1]; 60 min post i.v. injection,0.58 % ID/g
same,"Organ distribution of F-18 signal, testicle",[1]; 240 min post i.v. injection,0.08 % ID/g
same,"Organ distribution of F-18 signal, thyroid",[1]; 2 min post i.v. injection,3.59 % ID/g
same,"Organ distribution of F-18 signal, thyroid",[1]; 5 min post i.v. injection,3.10 % ID/g
same,"Organ distribution of F-18 signal, thyroid",[1]; 30 min post i.v. injection,1.92 % ID/g
same,"Organ distribution of F-18 signal, thyroid",[1]; 60 min post i.v. injection,1.27 % ID/g
same,"Organ distribution of F-18 signal, thyroid",[1]; 240 min post i.v. injection,0.41 % ID/g
same,autoradiographical analysis of binding to cryosections from cortex,Aβ plaques,Specific binding in plaque-rich regions of AD samples
